The text below walks through data of patent US20040097421A1 (priority 2000, published 2004).

Assay [1] has as its system fresh human tumour specimens (fourteen hematological, thirteen solid). The assay can be described thus: FMCA, IC50 comparison in 27 fresh human tumour specimens. The class given is cell-based. The following applies: 27 human tumour samples, 82 to 0.131 μM.
The subject of assay [2] is Ovarian carcinoma tumor cell system. The assay is described as follows: Cytotoxic activity in different tumor models, ovarian carcinoma. The format is cell-based, human. The following applies: Number 8.
Assay [3] deals with solid tumour types, cell lines and primary cultures of human tumour cells from patients. The assay is described as follows: Tumour type specific spectrum of antitumour activity, solid tumour types. The format is cell-based. The following applies: 4.0 μM.
The subject of assay [4] is 27 PHTC samples from 9 patients with hematological and 18 patients with solid tumours. The assay can be described thus: Circumvention of melphalan resistance, FMCA classification of PHTC samples. The class given is cell-based, human. The conditions noted are these: 4 μM.
The subject of assay [5] is hematological tumors, primary cultures of human tumor cells from patients (PHTC). The class given is cell-based.
The subject of assay [6] is U937vcr (vincristine resistance subline). The format is cell-based, human.
Assay [7] deals with Prostate cancer tumor cell system. The assay can be described thus: Cytotoxic activity in different tumor models, prostate cancer. The conditions noted are these: Number 1. The class given is cell-based, human.
Assay [8] relates to Adenocarcinoma tumor cell system. The assay can be described thus: Cytotoxic activity in different tumor models, adenocarcinoma. The format is cell-based, human. The following applies: Number 5.
For assay [9], the system named is Breast cancer tumor cell system. The assay can be described thus: Cytotoxic activity in different tumor models, breast cancer. The format is cell-based, human. The following applies: Number 4.
Assay [10] concerns Corpus cancer tumor cell system. The assay is described as follows: Cytotoxic activity in different tumor models, corpus cancer. The class given is cell-based, human. The conditions noted are these: Number 4.
In assay [11] the test system is RPMI 8322 melanoma cells. The following applies: cited from earlier work.
The subject of assay [12] is NSC Lung cancer tumor cell system. The assay can be described thus: Cytotoxic activity in different tumor models, NSC lung cancer. The class given is cell-based, human. The conditions noted are these: Number 8.
Assay [13] deals with 8226S (myeloma RPMI 8226). The assay is described as follows: cells. The format is cell-based, human. The conditions noted are these: Homo sapiens, RPMI-8226, 72 h, read-out: IC50 (μM), 8226S.
In assay [14] the test system is U1285 (small cell lung cancer). The assay can be described thus: cells. The conditions noted are these: Homo sapiens, read-out: IC50 (μM), U1285. The format is cell-based.
Assay [15] deals with panel of ten human tumour cell lines. The format is cell-based.
In assay [16] the test system is CEM/S (leukemia CCRF-CEM). The assay is described as follows: cells. The class given is cell-based. The following applies: Homo sapiens, 72 h, read-out: IC50 (μM), CEM/S.
Assay [17] concerns U1690 (small cell lung cancer). The assay is described as follows: cells. The following applies: Homo sapiens, read-out: IC50 (μM), U1690. The format is cell-based.
Assay [18] has as its system U-1568 (non-small cell lung cancer). The assay can be described thus: cells. The class given is cell-based. The following applies: Homo sapiens, read-out: IC50 (μM), U-1568.
Assay [19] concerns U1906L (small cell lung cancer). The assay can be described thus: cells. The class given is cell-based. The following applies: Homo sapiens, read-out: IC50 (μM), U1906L.
For assay [20], the system named is U-1752 (non-small cell lung cancer). The assay is described as follows: cells. The conditions noted are these: Homo sapiens, read-out: IC50 (μM), U-1752. The class given is cell-based.
The test system of assay [21] is U-1906E (small cell lung cancer). The assay is described as follows: cells. The format is cell-based. The following applies: Homo sapiens, read-out: IC50 (μM), U-1906E.
Assay [22] concerns NCI-H125 (non-small cell lung cancer). The assay is described as follows: cells. The format is cell-based. The conditions noted are these: Homo sapiens, NCI-H125, read-out: IC50 (μM), NCI-H125.
Assay [23] relates to NCI-H611 (non-small cell lung cancer). The assay is described as follows: cells. The class given is cell-based. The conditions noted are these: Homo sapiens, read-out: IC50 (μM), NCI-H611.

Molecules are shown by their SMILES. Counter-ions that a name gives are not always drawn.

On to `CCOC(=O)[C@H](Cc1ccc(F)cc1)NC(=O)[C@H](Cc1cccc(N(CCCl)CCCl)c1)NC(=O)[C@@H]1CCCN1` [Example P2, L-prolyl-m-L-sarcolysyl-p-L-fluorophenylalanine ethyl ester hydrochloride], for which the “Comparison of IC50s (FIG. 2)” value in [1] was “more active than melphalan”. The “Median response at 4.0 μM >50% reduction in tumor cell survival” value in assay [2], in [7], in assay [8], in [9], in assay [10] and in assay [12] was “No” in each case. Besides, the “Activity in the listed diagnoses of Table 5” value in assay [3] was “inactive”. For the same compound, in assay [4], the “Number of samples classified EDR (extreme drug resistance)” value amounted to 1. Also, the “Number of samples classified IDR (intermediate drug resistance)” value in assay [4] worked out at 4. For the same compound, in assay [4], the “Samples classified EDR (%)” value was 5%. Further, the “Tumor cell survival index (%), Hematological tumors n = 7-11” value in assay [5] came to 7%. This compound displayed an IC50 in assay [6] of 1.77 µM. In [11], the “Toxicity to RPMI 8322 melanoma cells compared with the other PTC peptides” value is recorded as “more toxic”.
With `CC[C@@]1(O)C(=O)OCc2c1cc1n(c2=O)Cc2cc3c(CN(C)C)c(O)ccc3nc2-1` [Topotecan, topotecan], the IC50 was determined as 0.87 µM in assay [13]; 0.17 µM in assay [14]; 0.02 µM in assay [16]; 0.92 µM in assay [17]; 115 µM in assay [18]; 0.12 µM in [19]. In addition, the IC50 in assay [20] is 28 µM; in [21] it was 0.08 µM; in assay [22], ≥ 236 µM; in assay [23], ≥ 236 µM. Also, in [15], the “IC50 (μM), MEAN” value stood at 20.0 µM.
